pIC50: −log10 of the molar value.
How the values were obtained:
Assay type in all cases: biochemical
A/PR8-S331G virus NA = A/PR8-S331G virus NA (Influenza A virus (H3N2), UniProt A0A193ACB1, S331G)
B/YAM-A395T virus NA = B/YAM-A395T virus NA (Influenza B virus, UniProt C0LT34, A395T)
B/YAM-A395V virus NA = B/YAM-A395V virus NA (Influenza B virus, UniProt A0A1W5M8K9, A395V)
B/YAM-A395D virus NA = B/YAM-A395D virus NA (Influenza B virus, UniProt C0LT34, A395D)
A/PR8-S331R virus NA = A/PR8-S331R virus NA (Influenza A virus (H3N2), UniProt A0A193ACB1, S331R)
A/PR8-I222V virus NA = A/PR8-I222V virus NA (Influenza A virus (H3N2), UniProt V5P6L4, I222V)
B/YAM-D342S virus NA = B/YAM-D342S virus NA (Influenza B virus, UniProt Q90021, D342S)
[1] = read-out: NA enzyme inhibition assay (mean IC50 ± SD)

CCC(CC)[C@H](NC(C)=O)[C@@H]1[C@H](O)[C@@H](C(=O)O)C[C@H]1N=C(N)N [Peramivir, peramivir] was tested, and the “fold increase in IC50 over A/PR8-WT” value (A/PR8-S331G virus NA) was 0.3 ± 0.3 (3) fold, the pIC50 (A/PR8-S331G virus NA; [1]) was 9.52 and the “fold increase in IC50 over B/BR/60/08” value (B/YAM-A395T virus NA) was 0.6 ± 0.08 (1.2) fold. For the same molecule, the pIC50 (B/YAM-A395T virus NA; [1]) was 9.22, the “fold increase in IC50 over B/BR/60/08” value (B/YAM-A395V virus NA) was 0.8 ± 0.12 (1.6) fold and the pIC50 (B/YAM-A395V virus NA; [1]) was 9.10. For the same molecule, the “fold increase in IC50 over B/BR/60/08” value (B/YAM-A395D virus NA) was 0.5 ± 0.36 (1) fold, the pIC50 (B/YAM-A395D virus NA; [1]) was 9.30 and the “fold increase in IC50 over A/PR8-WT” value (A/PR8-S331R virus NA) was 0.2 ± 0.06 (2) fold. The pIC50 (A/PR8-S331R virus NA; [1]) was 9.70, the “fold increase in IC50 over A/PR8-WT” value (A/PR8-I222V virus NA) was 0.1 ± 0.01 (1) fold and the pIC50 (A/PR8-I222V virus NA; [1]) was 10.00. The “fold increase in IC50 over B/BR/60/08” value (B/YAM-D342S virus NA) was 0.4 ± 0.12 (0.8) fold and the pIC50 (B/YAM-D342S virus NA; [1]) was 9.40.

Source: paper PMC5764337 (PLoS ONE, 2018)
